Results published in patent US11827628B2, “Compositions and methods for inhibition of the JAK pathway” (Rigel Pharmaceuticals, Inc., priority 2005, dated 2023).

System: up-regulation of ICAM-1 (CD54) by IFNγ in A549 lung epithelial cells
Assay: A549 Epithelial Line Stimulated with IFNγ (ICAM-1 surface expression, FACS)
Type: cell-based, human
Details: A549 cells stimulated with IFNγ, ICAM-1 expression by FACS; read-out: IC50, Example 43
Method in brief: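 A549 cells pre-incubated 1 h with compound (30 μM to 14 nM, 5% FBS, 0.3% DMSO), then stimulated with IFNγ (75 ng/mL) for 24 h. Surface ICAM-1 stained with APC anti-CD54 and read by flow cytometry; geometric mean of live-gated events plotted against concentration for EC50.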

## N2-[3-Aminosulfonyl-4-(4-methylpiperazine-1-yl)phenyl]-N4-(3-cyanomethylene-1H-indol-7-yl)-5-fluoro-2,4-pyrimidinediamine [IX-18]
  IC50: 55.2 µM
